Assays:
Assay type in all cases: cell-based, mouse
[1] = test system: EC d6 (endothelial-like cells); experiment: Western blot protein expression (densitometry); conditions: EC d6 24 h
Protocol: (§1) Total protein cell extracts were obtained upon sonication in RIPA buffer (EpiShearTM Probe sonicator, Active Motif [La Hulpe, Belgium]). Protein concentrations were determined using the DC Protein Assay (BioRad [Munich, Germany]). Extracts were supplemented with Roti®-Load buffer (Carl Roth GmbH [Karlsruhe, Germany]) followed by heating (95 °C for 5 min). 20 µg of protein was separated by SDS-PAGE and transferred onto nitrocellulose membrane. After blocking (5% non-fat milk in TBS/0.1% Tween 20 or 5% BSA in TBS/0.1% Tween 20) (1 h, RT) membrane was incubated with primary antibodies (1:500–5000; overnight, 4 °C). After washing with TBS/0.1% Tween 20, peroxidase-conjugated secondary antibody (1:2000) was added (2 h, RT) and bands were visualized using ChemiDoxTM Touch imaging system (BioRad, Munich, Germany).

[2] = test system: EC d4 (endothelial progenitor cells); experiment: Western blot protein expression (densitometry); conditions: EC d4 48 h
Protocol: as §1

mESC [3] = experiment: Western blot protein expression (densitometry); conditions: mESC 24 h
Protocol: as §1

EC d4 = experiment: DNA fiber spreading assay; conditions: EC d4 48 h; HU: 5 mM, 1 h
Protocol: (§2) To analyze DNA replication fork progression, the DNA fiber spreading assay was performed. Briefly, cells were pulse-labeled with 20 µM CldU (20 min, 37 °C, 5% C0_2) and immediately afterwards with 200 µM IdU (20 min, 37 °C, 5% C02). Cell suspension was applied onto glass slides followed by cell lysis (0.5% SDS, 200 mM Tris–HCl, 50 mM EDTA). After incubation (6 min, RT), slides were tilted upwards to stretch the fibers, dried 6 min lying horizontally flat and fixed (5 min, RT) in methanol: acetic acid (3:1). After drying (7 min, lying horizontally flat) slides were stored overnight in 70% ethanol (4 °C). The next day samples were incubated in 100% methanol (5 min, RT) followed by denaturation in 2.5 M HCl (1 h, RT) and blocking (5% BSA in PBS, 1 h, 37 °C). DNA Fibers were stained with rat anti-BrdU (1:40) for CldU detection and mouse anti-BrdU (1:70) for IdU detection (in 0.5% BSA/PBS; 1 h, RT). After washing (0.05% Tween 20 in PBS and PBS) incubation with secondary antibodies anti-rat 488 (1:400) and anti-mouse 555 (1:250) was performed (1 h, RT, 0.5% BSA in PBS). Following washing with 0.05% Tween 20 in PBS and PBS, the slides were mounted with Fluoroshield (Sigma [Steinheim, Germany]). DNA fibers were analyzed microscopically (Olympus BX43 fluorescence microscope [40 objective]). The length of CldU (green) and IdU (red) tract was measured using ImageJ software, analyzing 200 fibers per experimental condition.

EC d6 = experiment: DNA fiber spreading assay; conditions: EC d6 24 h; HU: 5 mM, 1 h
Protocol: as §2

mESC [4] = experiment: DNA fiber spreading assay; conditions: mESC 24 h; HU: 5 mM, 1 h
Protocol: as §2

COc1cc([C@@H]2c3cc4c(cc3[C@@H](O[C@@H]3O[C@@H]5CO[C@@H](C)O[C@H]5[C@H](O)[C@H]3O)[C@H]3COC(=O)[C@H]23)OCO4)cc(OC)c1O [Eto, etoposide]
CHK1 protein ([1]; Eto lane of blot Fig 5D - B02): 0.37 Fold of mESC | RAD51 protein ([1]; Eto lane of blot Fig 5D - B02): 0.38 Fold of mESC | p-CHK2 protein ([1]; Eto lane of blot Fig 5D - B02): 0.04 Fold of mESC | p-KAP1 protein ([1]; Eto lane of blot Fig 5D - B02): 0.00 Fold of mESC | p-RPA32 protein ([1]; Eto lane of blot Fig 5D - B02): 0.04 Fold of mESC | p-p53 protein ([1]; Eto lane of blot Fig 5D - B02): 1.45 Fold of mESC | CHK1 protein ([1]; Eto lane of blot Fig 5D - Dox): 0.6 Fold of mESC | RAD51 protein ([1]; Eto lane of blot Fig 5D - Dox): 0.8 Fold of mESC | p-CHK2 protein ([1]; Eto lane of blot Fig 5D - Dox): 0.2 Fold of mESC | p-KAP1 protein ([1]; Eto lane of blot Fig 5D - Dox): 0.0 Fold of mESC | p-RPA32 protein ([1]; Eto lane of blot Fig 5D - Dox): 0.1 Fold of mESC | p-p53 protein ([1]; Eto lane of blot Fig 5D - Dox): 3.7 Fold of mESC | CHK1 protein ([1]; Eto lane of blot Fig 5D - EST): 0.1 Fold of mESC | RAD51 protein ([1]; Eto lane of blot Fig 5D - EST): 0.5 Fold of mESC | p-CHK2 protein ([1]; Eto lane of blot Fig 5D - EST): 0.4 Fold of mESC | p-KAP1 protein ([1]; Eto lane of blot Fig 5D - EST): 0.0 Fold of mESC | p-RPA32 protein ([1]; Eto lane of blot Fig 5D - EST): < 0.1 Fold of mESC | p-p53 protein ([1]; Eto lane of blot Fig 5D - EST): 2.0 Fold of mESC | CHK1 protein ([2]; Eto lane of blot Fig 5D - B02): 0.7 Fold of mESC | RAD51 protein ([2]; Eto lane of blot Fig 5D - B02): 1.0 Fold of mESC | p-CHK2 protein ([2]; Eto lane of blot Fig 5D - B02): 0.4 Fold of mESC | p-KAP1 protein ([2]; Eto lane of blot Fig 5D - B02): 0.0 Fold of mESC | p-RPA32 protein ([2]; Eto lane of blot Fig 5D - B02): 0.4 Fold of mESC | p-p53 protein ([2]; Eto lane of blot Fig 5D - B02): 1.7 Fold of mESC | CHK1 protein ([2]; Eto lane of blot Fig 5D - Dox): 1.6 Fold of mESC | RAD51 protein ([2]; Eto lane of blot Fig 5D - Dox): 0.1 Fold of mESC | p-CHK2 protein ([2]; Eto lane of blot Fig 5D - Dox): 0.5 Fold of mESC | p-KAP1 protein ([2]; Eto lane of blot Fig 5D - Dox): 0.0 Fold of mESC | p-RPA32 protein ([2]; Eto lane of blot Fig 5D - Dox): 0.5 Fold of mESC | p-p53 protein ([2]; Eto lane of blot Fig 5D - Dox): 4.8 Fold of mESC | CHK1 protein ([2]; Eto lane of blot Fig 5D - EST): 0.7 Fold of mESC | RAD51 protein ([2]; Eto lane of blot Fig 5D - EST): 1.2 Fold of mESC | p-CHK2 protein ([2]; Eto lane of blot Fig 5D - EST): 1.2 Fold of mESC | p-KAP1 protein ([2]; Eto lane of blot Fig 5D - EST): 0.0 Fold of mESC | p-RPA32 protein ([2]; Eto lane of blot Fig 5D - EST): 0.4 Fold of mESC | p-p53 protein ([2]; Eto lane of blot Fig 5D - EST): 3.0 Fold of mESC | CHK1 protein (mESC [3]; Eto lane of blot Fig 5D - B02): 0.9 Fold of mESC | RAD51 protein (mESC [3]; Eto lane of blot Fig 5D - B02): 1.9 Fold of mESC | p-CHK2 protein (mESC [3]; Eto lane of blot Fig 5D - B02): 0.8 Fold of mESC | p-KAP1 protein (mESC [3]; Eto lane of blot Fig 5D - B02): 49.01 Fold of mESC | p-RPA32 protein (mESC [3]; Eto lane of blot Fig 5D - B02): 0.7 Fold of mESC | p-p53 protein (mESC [3]; Eto lane of blot Fig 5D - B02): 2.1 Fold of mESC | CHK1 protein (mESC [3]; Eto lane of blot Fig 5D - Dox): 2.4 Fold of mESC | RAD51 protein (mESC [3]; Eto lane of blot Fig 5D - Dox): 1.9 Fold of mESC | p-CHK2 protein (mESC [3]; Eto lane of blot Fig 5D - Dox): 1.6 Fold of mESC | p-KAP1 protein (mESC [3]; Eto lane of blot Fig 5D - Dox): 29.7 Fold of mESC | p-RPA32 protein (mESC [3]; Eto lane of blot Fig 5D - Dox): 1.6 Fold of mESC | p-p53 protein (mESC [3]; Eto lane of blot Fig 5D - Dox): 6.9 Fold of mESC | CHK1 protein (mESC [3]; Eto lane of blot Fig 5D - EST): 1.3 Fold of mESC | RAD51 protein (mESC [3]; Eto lane of blot Fig 5D - EST): 2.4 Fold of mESC | p-CHK2 protein (mESC [3]; Eto lane of blot Fig 5D - EST): 1.3 Fold of mESC | p-KAP1 protein (mESC [3]; Eto lane of blot Fig 5D - EST): 36.8 Fold of mESC | p-RPA32 protein (mESC [3]; Eto lane of blot Fig 5D - EST): 1.0 Fold of mESC | p-p53 protein (mESC [3]; Eto lane of blot Fig 5D - EST): 3.7 Fold of mESC | CHK1 protein (mESC [3]; Fig 4H, Eto, Dox 1, B02, EST): 1.0 Fold of mESC | p-ATR protein (mESC [3]; Fig 4H, Eto, Dox 1, B02, EST): 1.6 Fold of mESC | p-CHK1 protein (mESC [3]; Fig 4H, Eto, Dox 1, B02, EST): 2.3 Fold of mESC | p-RPA32 protein (mESC [3]; Fig 4H, Eto, Dox 1, B02, EST): 1.2 Fold of mESC | p-p53 protein (mESC [3]; Fig 4H, Eto, Dox 1, B02, EST): 6.1 Fold of mESC

NC(=O)NO [HU, Hydroxyurea]
replication fork progression (EC d4): decreased replication fork speed | replication fork progression (EC d6): decreased replication fork speed | replication fork progression (mESC [4]): decreased replication fork speed

Reference: paper PMC13308190, “Endothelial progenitor cell susceptibility to DNA damaging and DDR-modulating compounds determines endothelial differentiation accuracy” (Stem Cell Research & Therapy, 2026)
